In patent US11214540B2, “Compositions for treating neurodegenerative diseases” (COGNITION THERAPEUTICS, INC., priority 2017, dated 2022):
pEC50, pIC50, pKi: −log10 of the molar value.

Columns and labels:
log P = type: physicochemical
Outline: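 Ratio of un-ionized compound concentrations between octanol and water, with aqueous pH set so the un-ionized form predominates. Value given as the log of the octanol/water ratio.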

[1] = tested on: Abeta oligomer-induced membrane trafficking deficits in primary hippocampal neurons; test: Membrane Trafficking/Exocytosis (MTT) assay, Abeta oligomer effect on neurons; type: cell-based, rat; settings: membrane trafficking; read-out: EC50 Abeta;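 also: compound potency for inhibiting the Abeta oligomer effect on exocytosis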
Description: Compounds according to any embodiment described herein, were tested for their ability to inhibit an amyloid beta effect on the cells. The compounds generally were able to inhibit the amyloid beta effect as measured by a membrane trafficking/exocytosis assay (MTT assay). The rationale for this assay was as follows:
The present exocytosis assay was adapted for use with mature primary neuronal cultures grown for 3 weeks in vitro. See WO 2011/106785, which is incorporated herein by reference in its entirety. Abeta oligomers cause a dose-dependent decrease in the amount of intracellular vesicles (puncta) filled with reduced purple formazan as measured via image processing using a Cellomics VTI automated microscopy system. […] Increasing the amount of Abeta oligomers eventually results in overt toxicity. Thus, the concentration of neuroactive Abeta oligomers used in the assay is much lower than that causing cell death. […] When configured in this manner, the assay is able to detect compounds that inhibit nonlethal effects of Abeta oligomer whether these compounds act via disruption of oligomers, inhibition of oligomer binding to neurons, or counteraction of signal transduction mechanisms of action initiated by oligomer binding.
Primary hippocampal neurons from E18 Sprague-Dawley rat embryos were plated at optimized concentrations in 384 well plates in NB media (Invitrogen). Neurons were maintained in cultures for 3 weeks, with twice weekly feeding of NB media with N2 supplement (Invitrogen).
A test compound was added to cells at concentrations ranging from 100 uM to 0.001 nM followed by addition of vehicle or Abeta oligomer preparations (3 μM total Abeta protein concentration), and incubated for 1 to 24 hr at 37° C. in 5% CO2. MTT reagent (3-(4,5-dimethylthizaol-2yl)-2,5diphenyl tetrazolium bromide) (Roche Molecular Biochemicals) was reconstituted in phosphate buffered saline to 5 mg/mL. 10 μL of MTT labeling reagent is added to each well and incubated at 37° C. for 1 h, then imaged. Exocytosis was assessed by automated microscopy and image processing to quantify the amount of endocytosed and exocytosed formazan.
Each assay plate was formatted so that compounds are tested with and without Abeta oligomer on each plate. This design eliminates toxic or metabolically active compounds early on in the screening cascade (at the level of the primary screen). Reduced formazan was first visible in intracellular vesicles. Eventual formazan exocytosis was accelerated via Abeta oligomers.
Human amyloid peptide 1-42 was obtained from a number of commercial vendors such as California Peptide, with lot-choice contingent upon quality control analysis. Quality controls of oligomer preparations consist of Westerns to determine oligomer size ranges and relative concentrations, and the MTT assay to confirm exocytosis acceleration without toxicity. Toxicity was monitored in each image-based assay via quantification of nuclear morphology visualized with the DNA binding blue dye DAPI (Invitrogen). Nuclei that are fragmented are considered to be in late stage apoptosis (Majno and Joris '95) and the test would be rejected. Peptide lots producing unusual peptide size ranges or significant toxicity at a standard 1.5 μM concentration on neurons would also be rejected.
Data handling and analysis were accomplished by Cellomics VTI image analysis software and STORE automated database software. Because of the low dynamic range and neuronal well-to-well variability after three weeks in culture, statistical comparisons are made via pairwise Tukey-Kramer analysis to determine the significance of the separation between compound+Abeta oligomers from Abeta alone, and between compound alone from vehicle. The ability of mature primary neurons to more closely approximate the electrophysiologically mediated signal transduction network of the adult brain justifies this screening strategy. […]

[2] = biological target: Sigma-2 receptors on membranes from rat cerebral cortex (Rattus norvegicus (Rat), UniProt Q5U3Y7); test: Competitive Radioligand Binding Assay 1, Sigma-2 binding ([3H]DTG displacement with (+)pentazocine mask); settings: sigma-2 receptor affinity; read-out: S2 Ki
Description: Using the same protocol, some compounds for which membrane trafficking data are given in Table 1 were tested for recognition of sigma-2 receptor. Certain compounds preferentially bind to the sigma-2 receptor.
For Sigma-1 binding, various concentrations of test compounds from 100 μM to 1 nM were used to displace 8 nM [3H](+)pentazocine from endogenous receptors on Jurkat cell membranes (Ganapathy M E et al. 1991, J Pharmacol. Exp. Ther. 289:251-260). 10 μM Haloperidol was used to define non-specific binding. […] (Bowen W D, et al. 1993, Mol. Neuropharmcol 3:117-126). 10 μM Haloperidol was used to define non-specific binding. Reactions were terminated by rapid filtration through Whatman GF/C filters using a Brandel 12R cell harvester followed by two washes with ice-cold buffer. Radioactivity on the dried filter discs was measured using a liquid scintillation analyzer (Tri-Carb 2900TR; PerkinElmer Life and Analytical Sciences). The displacement curves were plotted and the Ki values of the test compounds for the receptor subtypes were determined using GraphPad Prism (GraphPad Software Inc., San Diego, Calif.). The percentage specific binding was determined by dividing the difference between total bound (disintegrations per minute) and nonspecific bound (disintegrations per minute) by the total bound (disintegrations per minute).
Affinities for Sigma-1 and Sigma-2 receptors are typically obtained from published studies using cerebral tissue homogenates with [3H](+)pentazocine to measure displacement from Sigma-1 receptors and [3H] 1,3-Di-(2-tolyl)guanidine in the presence of 300 nM (+)pentazocine to measure displacement from Sigma-2 receptors.

potassium channel hERG = potassium channel hERG (Homo sapiens (Human), UniProt Q12809); test: In vitro testing for hERG inhibition; type: biochemical; settings: in vitro toxicity potassium channel hERG
Description: In vitro testing for hERG inhibition was performed in a standard assay (See: Haverkamp W, Breithardt G, Carnm A J, Janse M J, Rosen M R, Antzelevitch C, Escande D, Franz M, Malik M, Moss A and Shah R. (2000) Eur Heat J 21 (15); 1216-31).

Chain of Sigma-2 receptors on membranes from rat cerebral cortex (Q5U3Y7 whole entry): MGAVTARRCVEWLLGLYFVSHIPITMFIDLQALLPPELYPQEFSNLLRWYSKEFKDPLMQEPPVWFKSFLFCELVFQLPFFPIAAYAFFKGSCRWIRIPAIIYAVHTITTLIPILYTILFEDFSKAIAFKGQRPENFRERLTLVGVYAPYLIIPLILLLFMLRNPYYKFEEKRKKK
Chain of potassium channel hERG (Q12809 whole entry): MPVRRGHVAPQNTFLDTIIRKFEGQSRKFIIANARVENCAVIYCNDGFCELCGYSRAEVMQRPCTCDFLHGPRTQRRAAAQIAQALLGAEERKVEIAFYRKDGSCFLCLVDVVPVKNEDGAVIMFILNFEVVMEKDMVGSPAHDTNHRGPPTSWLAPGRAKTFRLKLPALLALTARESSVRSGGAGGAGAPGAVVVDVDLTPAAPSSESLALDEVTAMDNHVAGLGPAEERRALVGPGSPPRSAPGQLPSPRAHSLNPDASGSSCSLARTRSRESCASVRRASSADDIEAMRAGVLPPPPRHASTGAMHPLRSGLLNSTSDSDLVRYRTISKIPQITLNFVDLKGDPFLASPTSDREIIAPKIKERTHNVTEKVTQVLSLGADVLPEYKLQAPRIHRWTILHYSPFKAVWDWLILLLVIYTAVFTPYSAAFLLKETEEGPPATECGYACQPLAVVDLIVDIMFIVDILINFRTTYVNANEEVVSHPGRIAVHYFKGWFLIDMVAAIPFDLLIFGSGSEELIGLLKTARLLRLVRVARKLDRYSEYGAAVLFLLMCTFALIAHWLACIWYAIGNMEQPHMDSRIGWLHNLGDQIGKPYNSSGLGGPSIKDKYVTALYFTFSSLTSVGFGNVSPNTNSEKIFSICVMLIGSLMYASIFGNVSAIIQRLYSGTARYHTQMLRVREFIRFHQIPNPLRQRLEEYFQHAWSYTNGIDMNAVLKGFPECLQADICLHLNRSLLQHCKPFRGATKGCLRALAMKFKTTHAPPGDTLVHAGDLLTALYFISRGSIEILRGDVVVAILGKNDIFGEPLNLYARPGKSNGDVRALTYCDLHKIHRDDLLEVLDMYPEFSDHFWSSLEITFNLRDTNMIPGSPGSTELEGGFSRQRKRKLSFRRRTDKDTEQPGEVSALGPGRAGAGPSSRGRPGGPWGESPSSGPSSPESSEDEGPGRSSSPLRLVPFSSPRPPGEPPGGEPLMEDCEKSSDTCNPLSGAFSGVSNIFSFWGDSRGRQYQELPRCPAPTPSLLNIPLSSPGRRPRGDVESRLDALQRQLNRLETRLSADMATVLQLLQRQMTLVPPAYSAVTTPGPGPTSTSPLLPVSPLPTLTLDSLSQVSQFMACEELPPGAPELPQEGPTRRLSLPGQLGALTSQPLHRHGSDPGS

| log P (log P) | pKi [2] | SMILES | pEC50 [1] | pIC50 (potassium channel hERG) |
| --- | --- | --- | --- | --- |
| 6.22 | 9.12 | CC(C)=CC(CC(C)(C)c1ccc(C)cc1)N1CCC(C2CCOCC2)CC1 (stereo not shown) [Compound 3] | 6.60 | – |
| 6.31 | 8.00 | CC(C)=CC(CC(C)(C)c1ccc(Cl)cc1)N1CCC(c2ccncc2)CC1 (stereo not shown) [Compound 24] | 4.70 | – |
| 6.37 | 7.49 | CC(C)=CC(CC(C)(C)c1ccc(Cl)cc1)N1CCC(c2ccc(S(C)(=O)=O)cc2)CC1 (stereo not shown) [Compound 32] | 5.16 | – |
| 7.04 | 7.48 | CC(C)=CC(CC(C)(C)c1ccc(C)cc1)N1CCC(C(C)C)CC1 (stereo not shown) [Compound 33] | 5.72 | – |
| 6.26 | 7.07 | CC(C)=CC(CC(C)(C)c1ccc(C)cc1)N1CCN(CC(C)C)CC1 (stereo not shown) [Compound 45] | 5.59 | – |
| 6.37 | 7.07 | CC(C)=CC(CC(C)(C)c1ccc(Cl)cc1)N1CCC(c2cccc(S(C)(=O)=O)c2)CC1 (stereo not shown) [Compound 46] | 5.32 | – |
| 4.55 | 7.00 | CC(C)=CC(CC(C)(C)c1ccc(S(C)(=O)=O)cc1)N1CCC(c2ccncc2)CC1 (stereo not shown) [Compound 51] | 4.70 | – |
| 6.9 | 6.96 | CC(C)=CC(CC(C)(C)c1ccc(C)cc1)NCC1CCCCC1 (stereo not shown) [Compound 52] | 5.32 | – |
| 7.02 | 6.92 | CC(C)=CC(CC(C)(C)c1ccc(C)cc1)NCc1ccc(C)cc1 (stereo not shown) [Compound 54] | 5.49 | – |
| 5.21 | 6.82 | CC(C)=CC(CC(C)(C)c1ccc(C)cc1)NCC1CCOCC1 (stereo not shown) [Compound 57] | 6.14 | – |
| 6.91 | 6.68 | CC(C)=CC(CC(C)(C)c1ccc(C)cc1)N1CCN(c2ccccc2)CC1 (stereo not shown) [Compound 60] | 6.00 | – |
| 7.42 | 6.62 | CC(C)=CC(CC(C)(C)c1ccc(Cl)cc1)N1CCC(c2ccnc(N3CCCC3)c2)CC1 (stereo not shown) [Compound 63] | 5.82 | – |
| 6.8 | 6.52 | CC(C)=CC(CC(C)(C)c1ccc(Cl)cc1)N1CCC(c2ccnc(N3CCOCC3)c2)CC1 (stereo not shown) [Compound 67] | 4.89 | – |
| 4.61 | – | CC(C)=CC(CC(C)(C)c1ccc(F)cc1)N1CCC(N2CCOCC2)CC1 (stereo not shown) [Compound 126] | 6.52 | 5.13 |
| 6.41 | – | CC(C)=CC(CC(C)(C)c1ccc(C(F)(F)F)cc1)N1CCC(N2CCCCC2)CC1 (stereo not shown) [Compound 127] | 6.52 | 5.48 |
| 5.13 | – | CC(C)=CC(CC(C)(C)c1ccc(C(F)(F)F)cc1)N1CCC(C)(O)CC1 (stereo not shown) [Compound 129] | 5.89 | 4.62 |
| 5.58 | – | CCOC1CCN(C(C=C(C)C)CC(C)(C)c2ccc(Cl)cc2)CC1 (stereo not shown) [Compound 136] | 5.82 | 5.68 |
| 6.28 | – | CC(C)=CC(CC(C)(C)c1ccc(C(F)(F)F)cc1)N1CCN(C(=O)OC(C)(C)C)CC1 (stereo not shown) [Compound 200] | – | 4.08 |
| 3.97 | – | CC(C)=CC(CC(C)(C)c1ccccc1)N1CCC(O)CC1 (stereo not shown) [Compound 201] | 4.82 | 4.82 |
| 6.5 | – | CC(C)=CC(CC(C)(C)c1ccc(C(F)(F)F)cc1)N1CCC(O)(c2ccccc2)CC1 (stereo not shown) [Compound 205] | 6.23 | 5.41 |

| log P (log P) | pKi [2] | SMILES | pEC50 [1] | pIC50 (potassium channel hERG) |
| --- | --- | --- | --- | --- |
| 4.79 | – | COCCC1(O)CCN(C(C=C(C)C)CC(C)(C)c2ccc(C(F)(F)F)cc2)CC1 (stereo not shown) [Compound 210] | 6.38 | 5.36 |
| 6.54 | – | CCCCC1(O)CCN(C(C=C(C)C)CC(C)(C)c2ccc(C(F)(F)F)cc2)CC1 (stereo not shown) [Compound 212] | 5.74 | 4.57 |
| 4.25 | – | CC(C)=CC(CC(C)(C)c1ccccc1)N1CCC(C)(O)CC1 (stereo not shown) [Compound 213] | 5.18 | 5.19 |
| 4.51 | – | COCCC1(O)CCN(C(C=C(C)C)CC(C)(C)c2ccc(Cl)cc2)CC1 (stereo not shown) [Compound 217] | 5.34 | 5.11 |
| 4.05 | – | COCCC1(O)CCN(C(C=C(C)C)CC(C)(C)c2ccc(F)cc2)CC1 (stereo not shown) [Compound 218] | – | 4.89 |
| 4.03 | – | CC(CC(C)(C)c1ccc(Cl)cc1)N1CCCC1CO (stereo not shown) [Compound 229] | 4.82 | 4.68 |
| 4.52 | – | CC(C)=CC(CC(C)(C)c1ccc(Cl)cc1)N1CC[C@H](O)C1 (stereo partly shown) [Compound 230] | 5.00 | 4.80 |
| 4.79 | – | CC(C)=CC(CC(C)(C)c1ccc(C(F)(F)F)cc1)N1CC[C@H](O)C1 (stereo partly shown) [Compound 232] | 4.82 | 4.54 |
| 3.79 | – | CC(CC(C)(C)c1ccc(C(F)(F)F)cc1)N1CC[C@H](O)C1 (stereo partly shown) [Compound 233] | 6.59 | 4.62 |
| 5.31 | – | CC(C)=CC(CC(C)(C)c1ccc(C(F)(F)F)cc1)N1CCC[C@H]1CO (stereo partly shown) [Compound 236] | 4.82 | 4.70 |
| 4.67 | – | COCC1CCCN1C(C)CC(C)(C)c1ccc(Cl)cc1 (stereo not shown) [Compound 238] | 4.82 | 4.89 |
| 5.04 | – | CC(C)=C[C@@H](CC(C)(C)c1ccc(Cl)cc1)N1CCC[C@@H]1CO [Compound 239] | – | 5.34 |
| 4.57 | – | CC(C)=C[C@H](CC(C)(C)c1ccc(F)cc1)N1CCC[C@@H]1CO [Compound 242] | – | 4.85 |
| 5.22 | – | COC[C@@H]1CCCN1[C@@H](C=C(C)C)CC(C)(C)c1ccc(F)cc1 [Compound 244] | 5.07 | 5.32 |
| 5.22 | – | COCC1CCCN1C(C=C(C)C)CC(C)(C)c1ccc(F)cc1 (stereo not shown) [Compound 245] | < 4.82 | 4.85 |
| 5.07 | – | COC[C@@H]1CCCN1[C@@H](C=C(C)C)CC(C)(C)c1ccccc1 [Compound 249] | 4.82 | 5.03 |
| 3.51 | – | CC(CC(C)(C)c1ccc(Cl)cc1)N1CCC(O)C1 (stereo not shown) [Compound 250] | 4.82 | 4.55 |
| 5.07 | – | COCC1CCCN1C(C=C(C)C)CC(C)(C)c1ccccc1 (stereo not shown) [Compound 252] | 4.82 | 5.15 |
| 4.95 | – | COC[C@H]1CCCN1[C@@H](C)CC(C)(C)c1ccc(C(F)(F)F)cc1 [Compound 254] | – | 5.30 |
